The values below come from ChEMBL document CHEMBL1144467, “Effect of topical microbicides on infectious human immunodeficiency virus type 1 binding to epithelial cells” (2007).

Calls of active or inactive are those of the source. The rule behind the calls is not given here.

The test system of assay [1] is Human immunodeficiency virus 1. The assay can be described thus: Inhibition of HIV1 LAI binding to human A431 cells relative to control. Type of assay: functional, organism-based. Conditions: A-431.
In assay [2] the test system is Human immunodeficiency virus 1. The experiment in a line: Inhibition of HIV1 BaL binding to human Caco-2 cells relative to control. Type of assay: functional, organism-based.
Assay [3] deals with Human immunodeficiency virus 1. The assay can be described thus: Inhibition of HIV1 LAI binding to human Caco-2 cells relative to control. Format: functional, organism-based.
Assay [4] has as its system Human immunodeficiency virus 1. The experiment in a line: Antiviral activity against HIV1 BaL assessed as logReduction in viral transmission from human A431 cells to human PBMC by ELISA. Format: functional. For orientation: An ELISA detects its analyte on a solid surface through an enzyme-linked reagent.
The subject of assay [5] is Human immunodeficiency virus 1. The assay can be described thus: Inhibition of HIV1 BaL binding to human A431 cells relative to control. Format: functional, organism-based. The settings on record: A-431.

As for `CC(C)=CCOc1cc(NC(=S)c2ccoc2C)ccc1Cl` [UC 781], the outcome in assay [1], in assay [2], in assay [3] and in assay [5] was inactive. Besides, the Activity in assay [4] worked out at 6.1.
